Assay results: PMC5218480 (PLoS ONE, 2017)

System: MV-4-11 cells
Assay: Gene expression microarray analysis (Affymetrix PrimeView) and GSEA
Assay type: cell-based, human
Design: RFU PODN (11730768_x_at) / Fold change /veh PODN (11730768_x_at) / RFU LINC00158 (11744669_a_at) / Fold change /veh LINC00158 (11744669_a_at) / RFU DUSP10 (11751237_a_at) / Fold change /veh DUSP10 (11751237_a_at) / RFU ID3 (11757404_x_at) / Fold change /veh ID3 (11757404_x_at) / RFU PLEKHG5 (11737974_s_at) / Fold change /veh PLEKHG5 (11737974_s_at) / RFU LRRC4B (11730491_at) / Fold change /veh LRRC4B (11730491_at) / RFU GIMAP4 (11747438_a_at) / Fold change /veh GIMAP4 (11747438_a_at) / RFU KRT8 (11758183_x_at) / Fold change /veh KRT8 (11758183_x_at) / RFU CNN1 (11734310_a_at) / Fold change /veh CNN1 (11734310_a_at) / RFU VPS37D (11726825_at) / Fold change /veh VPS37D (11726825_at) / RFU C10orf10 (11716522_x_at) / Fold change /veh C10orf10 (11716522_x_at) / RFU KIR2DL2 /// KIR2DL4 /// KIR2DL5A /// KIR2DL5B /// KIR2DS1 /// KIR2DS2 /// KIR2DS3 /// KIR2DS4 /// KIR3DL3 /// KIR3DL3 /// KIR3DS1 (11738374_at) / Fold change /veh KIR2DL2 /// KIR2DL4 /// KIR2DL5A /// KIR2DL5B /// KIR2DS1 /// KIR2DS2 /// KIR2DS3 /// KIR2DS4 /// KIR3DL3 /// KIR3DL3 /// KIR3DS1 (11738374_at) / RFU C1QL1 (11718748_at) / Fold change /veh C1QL1 (11718748_at) / RFU TMPRSS4 (11747572_a_at) / Fold change /veh TMPRSS4 (11747572_a_at) / RFU HAMP (11756126_x_at) / Fold change /veh HAMP (11756126_x_at) / RFU RNFT2 (11725882_a_at) / Fold change /veh RNFT2 (11725882_a_at) / RFU NR4A2 (11747474_a_at) / Fold change /veh NR4A2 (11747474_a_at) / RFU ABCC12 (11746883_a_at) / Fold change /veh ABCC12 (11746883_a_at) / RFU TMEM136 (11760407_x_at) / Fold change /veh TMEM136 (11760407_x_at) / RFU CLDN22 /// WWC2 (11732394_at) / Fold change /veh CLDN22 /// WWC2 (11732394_at) / RFU HLA-DPB1 (11760878_x_at) / Fold change /veh HLA-DPB1 (11760878_x_at) / RFU SPINT1 (11716480_a_at) / Fold change /veh SPINT1 (11716480_a_at) / RFU GAP43 (11754022_s_at) / Fold change /veh GAP43 (11754022_s_at) / RFU A4GNT (11735810_at) / Fold change /veh A4GNT (11735810_at) / RFU PRB3 (11715151_x_at) / Fold change /veh PRB3 (11715151_x_at) / RFU TUBB4B (11761932_at) / Fold change /veh TUBB4B (11761932_at) / RFU CAPN14 (11732068_a_at) / Fold change /veh CAPN14 (11732068_a_at) / RFU TMCC2 (11721928_a_at) / Fold change /veh TMCC2 (11721928_a_at) / RFU IRGQ (11745062_a_at) / Fold change /veh IRGQ (11745062_a_at) / RFU FAM174B (11720279_a_at) / Fold change /veh FAM174B (11720279_a_at) / RFU TMPRSS4 (11748680_a_at) / Fold change /veh TMPRSS4 (11748680_a_at) / RFU FAM212B (11763350_a_at) / Fold change /veh FAM212B (11763350_a_at) / RFU PLEKHG5 (11743358_a_at) / Fold change /veh PLEKHG5 (11743358_a_at) / RFU ZSCAN30 (11745921_a_at) / Fold change /veh ZSCAN30 (11745921_a_at) / RFU CMKLR1 (11741424_a_at) / Fold change /veh CMKLR1 (11741424_a_at) / RFU LOC101060620 /// MAPK8IP1 (11723275_at) / Fold change /veh LOC101060620 /// MAPK8IP1 (11723275_at) / RFU SPTSSB (11747773_x_at) / Fold change /veh SPTSSB (11747773_x_at) / RFU PRSS12 (11739890_at) / Fold change /veh PRSS12 (11739890_at) / RFU BIN1 (11741810_x_at) / Fold change /veh BIN1 (11741810_x_at) / RFU WNT11 (11732464_a_at) / Fold change /veh WNT11 (11732464_a_at) / RFU C10orf10 (11716521_a_at) / Fold change /veh C10orf10 (11716521_a_at) / RFU C5orf56 (11738089_at) / Fold change /veh C5orf56 (11738089_at) / RFU CYB561 (11721691_x_at) / Fold change /veh CYB561 (11721691_x_at) / RFU ANKRD19P (11752326_a_at) / Fold change /veh ANKRD19P (11752326_a_at) / RFU OR2T12 /// OR2T33 /// OR2T8 (11738714_s_at) / Fold change /veh OR2T12 /// OR2T33 /// OR2T8 (11738714_s_at) / RFU VCAN (11748164_a_at) / Fold change /veh VCAN (11748164_a_at) / RFU JSRP1 (11732532_at) / Fold change /veh JSRP1 (11732532_at) / RFU KRTAP10-11 (11738290_x_at) / Fold change /veh KRTAP10-11 (11738290_x_at) / RFU MYO3A (11730013_a_at) / Fold change /veh MYO3A (11730013_a_at) / RFU EBF3 (11725865_a_at) / Fold change /veh EBF3 (11725865_a_at) / RFU CAMK2N1 (11719241_x_at) / Fold change /veh CAMK2N1 (11719241_x_at) / RFU C5orf56 (11738088_a_at) / Fold change /veh C5orf56 (11738088_a_at) / RFU OLFML3 (11715873_a_at) / Fold change /veh OLFML3 (11715873_a_at) / RFU LOC100653217 /// NTM (11731650_a_at) / Fold change /veh LOC100653217 /// NTM (11731650_a_at) / RFU MAPK11 (11762145_a_at) / Fold change /veh MAPK11 (11762145_a_at) / RFU FIZ1 (11724087_x_at) / Fold change /veh FIZ1 (11724087_x_at) / RFU OASL (11726364_x_at) / Fold change /veh OASL (11726364_x_at) / RFU SOX15 (11748057_x_at) / Fold change /veh SOX15 (11748057_x_at) / RFU CD79A (11719716_a_at) / Fold change /veh CD79A (11719716_a_at) / RFU HIST1H1D (11736915_at) / Fold change /veh HIST1H1D (11736915_at) / RFU CASKIN2 (11723855_a_at) / Fold change /veh CASKIN2 (11723855_a_at) / RFU LOC730098 (11760151_x_at) / Fold change /veh LOC730098 (11760151_x_at) / RFU OR4N2 (11742367_at) / Fold change /veh OR4N2 (11742367_at) / RFU PRRT2 (11749266_a_at) / Fold change /veh PRRT2 (11749266_a_at) / RFU SNX32 (11753110_a_at) / Fold change /veh SNX32 (11753110_a_at) / RFU CDHR5 (11726645_a_at) / Fold change /veh CDHR5 (11726645_a_at) / RFU RCAN1 (11760418_a_at) / Fold change /veh RCAN1 (11760418_a_at) / RFU FAM167A (11723789_a_at) / Fold change /veh FAM167A (11723789_a_at) / RFU FAM26E (11764081_at) / Fold change /veh FAM26E (11764081_at) / RFU ISYNA1 (11749810_s_at) / Fold change /veh ISYNA1 (11749810_s_at) / RFU ACY1 (11761880_at) / Fold change /veh ACY1 (11761880_at) / RFU 11764098_at / Fold change /veh 11764098_at / RFU SAMD14 (11745864_x_at) / Fold change /veh SAMD14 (11745864_x_at) / RFU NPB (11741838_a_at) / Fold change /veh NPB (11741838_a_at) / RFU TMPRSS6 (11731388_a_at) / Fold change /veh TMPRSS6 (11731388_a_at) / RFU KRTAP10-2 (11738614_at) / Fold change /veh KRTAP10-2 (11738614_at) / RFU ARHGAP8 /// PRR5-ARHGAP8 (11727945_x_at) / Fold change /veh ARHGAP8 /// PRR5-ARHGAP8 (11727945_x_at) / RFU KRTAP5-7 /// NADSYN1 (11734609_at) / Fold change /veh KRTAP5-7 /// NADSYN1 (11734609_at) / RFU RASL12 (11751679_a_at) / Fold change /veh RASL12 (11751679_a_at) / RFU CDKN2B (11736163_a_at) / Fold change /veh CDKN2B (11736163_a_at) / RFU PRF1 (11729649_at) / Fold change /veh PRF1 (11729649_at) / RFU, ZNF638 /// ZNF638-IT1 / Fold change vs veh, ZNF638 /// ZNF638-IT1 / RFU, PANK3 / Fold change vs veh, PANK3 / RFU, SH3YL1 / Fold change vs veh, SH3YL1 / RFU, ZEB2 / Fold change vs veh, ZEB2 / RFU, NRIP1 / Fold change vs veh, NRIP1 / RFU, PTTG1IP / Fold change vs veh, PTTG1IP / RFU, CAPN2 / Fold change vs veh, CAPN2 / RFU, MED14 / Fold change vs veh, MED14 / RFU, SNORA58 / Fold change vs veh, SNORA58 / RFU, C1orf63 / Fold change vs veh, C1orf63 / RFU, LRRFIP1 / Fold change vs veh, LRRFIP1 / RFU, NDUFAF7 / Fold change vs veh, NDUFAF7 / RFU, SLC12A2 / Fold change vs veh, SLC12A2 / RFU, IBTK / Fold change vs veh, IBTK / RFU, ESF1 / Fold change vs veh, ESF1 / Fold change vs veh, TMEM50B / RFU, TAOK1 / Fold change vs veh, TAOK1 / RFU, ACBD3 / Fold change vs veh, ACBD3 / RFU, TMA16 / Fold change vs veh, TMA16 / RFU, RWDD3 / Fold change vs veh, RWDD3 / RFU, BCAT1 / Fold change vs veh, BCAT1 / RFU, EDEM3 / Fold change vs veh, EDEM3 / RFU, TMEM33 / Fold change vs veh, TMEM33 / RFU, WDR75 / Fold change vs veh, WDR75 / RFU, AHCTF1 / Fold change vs veh, AHCTF1 / RFU, TFRC / Fold change vs veh, TFRC / RFU, ZDHHC17 / Fold change vs veh, ZDHHC17 / RFU, NOM1 / Fold change vs veh, NOM1 / RFU, ARL8B / Fold change vs veh, ARL8B / RFU, ZBTB11 / Fold change vs veh, ZBTB11 / RFU, TAMM41 / Fold change vs veh, TAMM41 / RFU, KIAA1704 /// LOC100996395 / Fold change vs veh, KIAA1704 /// LOC100996395 / RFU, ING1 / Fold change vs veh, ING1 / RFU, TRMT61B / Fold change vs veh, TRMT61B / RFU, FUBP3 / Fold change vs veh, FUBP3 / RFU, TP53 / Fold change vs veh, TP53 / RFU, TNKS2 / Fold change vs veh, TNKS2 / RFU, ZFP14 / Fold change vs veh, ZFP14 / RFU, ACTR2 / Fold change vs veh, ACTR2 / RFU, PPP3R1 / Fold change vs veh, PPP3R1 / RFU, PIK3R1 / Fold change vs veh, PIK3R1 / RFU, HNRNPA1 / Fold change vs veh, HNRNPA1 / RFU, RNF170 / Fold change vs veh, RNF170 / RFU, ZNF28 / Fold change vs veh, ZNF28 / RFU, RNGTT / Fold change vs veh, RNGTT / RFU, OGT / Fold change vs veh, OGT / RFU, BRD1 / Fold change vs veh, BRD1 / RFU, MARS / Fold change vs veh, MARS / RFU, ZNF655 / Fold change vs veh, ZNF655 / RFU, FAHD1 / Fold change vs veh, FAHD1 / RFU, BDP1 / Fold change vs veh, BDP1 / RFU, LRRCC1 / Fold change vs veh, LRRCC1 / RFU, ARID1A / Fold change vs veh, ARID1A / RFU, ZNF146 / Fold change vs veh, ZNF146 / RFU, ZNF330 / Fold change vs veh, ZNF330 / RFU, GPN3 / Fold change vs veh, GPN3 / RFU, C9orf123 / Fold change vs veh, C9orf123 / RFU, N4BP2L2 / Fold change vs veh, N4BP2L2 / RFU, ARFIP1 / Fold change vs veh, ARFIP1 / RFU, FAM179B / Fold change vs veh, FAM179B / RFU, BCL10 / Fold change vs veh, BCL10 / RFU, UHRF1BP1L / Fold change vs veh, UHRF1BP1L / RFU, BET1 / Fold change vs veh, BET1 / RFU, CNOT2 / Fold change vs veh, CNOT2 / RFU, ZNF268 / Fold change vs veh, ZNF268 / Fold change vs veh, ZNF507 / RFU, DGCR2 / Fold change vs veh, DGCR2 / RFU, WDSUB1 / Fold change vs veh, WDSUB1 / Fold change vs veh, HSP90B1 /// MIR3652 / RFU, ADSS / Fold change vs veh, ADSS / RFU, GK / Fold change vs veh, GK / RFU, ZNF148 / Fold change vs veh, ZNF148 / RFU, TAF9 / Fold change vs veh, TAF9 / RFU, SLC1A5 / Fold change vs veh, SLC1A5 / RFU, SLMO2 / Fold change vs veh, SLMO2 / RFU, ABCC4 / Fold change vs veh, ABCC4 / RFU, LOC101060439 /// RAP1B / Fold change vs veh, LOC101060439 /// RAP1B / RFU, RFX7 / Fold change vs veh, RFX7 / RFU, GTPBP10 / Fold change vs veh, GTPBP10 / RFU, CNEP1R1 / Fold change vs veh, CNEP1R1 / RFU, BIVM-ERCC5 /// ERCC5 / Fold change vs veh, BIVM-ERCC5 /// ERCC5 / RFU, ILF3 / Fold change vs veh, ILF3 / RFU 11762660_at / Fold change /veh 11762660_at / RFU VCAN (11757783_s_at) / Fold change /veh VCAN (11757783_s_at) / RFU DDX43 (11728927_at) / Fold change /veh DDX43 (11728927_at) / RFU KRT8 (11758188_x_at) / Fold change /veh KRT8 (11758188_x_at) / RFU NKD1 (11759106_at) / Fold change /veh NKD1 (11759106_at) / RFU SRD5A1 (11742802_a_at) / Fold change /veh SRD5A1 (11742802_a_at) / RFU TPSAB1 /// TPSB2 (11721975_s_at) / Fold change /veh TPSAB1 /// TPSB2 (11721975_s_at) / RFU GSTM3 (11746129_a_at) / Fold change /veh GSTM3 (11746129_a_at) / RFU IL23R (11737362_x_at) / Fold change /veh IL23R (11737362_x_at) / RFU TMEM51 (11727254_a_at) / Fold change /veh TMEM51 (11727254_a_at) / RFU PIWIL2 (11732686_x_at) / Fold change /veh PIWIL2 (11732686_x_at) / RFU ORM1 (11744905_x_at) / Fold change /veh ORM1 (11744905_x_at) / RFU CCDC152 (11743942_at) / Fold change /veh CCDC152 (11743942_at) / RFU ECM1 (11717891_a_at) / Fold change /veh ECM1 (11717891_a_at) / RFU IL23R (11748794_a_at) / Fold change /veh IL23R (11748794_a_at) / RFU TNFAIP8L3 (11732012_x_at) / Fold change /veh TNFAIP8L3 (11732012_x_at) / RFU MBOAT4 (11741988_at) / Fold change /veh MBOAT4 (11741988_at) / RFU 11764193_at / Fold change /veh 11764193_at / RFU TMEM53 (11763286_at) / Fold change /veh TMEM53 (11763286_at) / RFU MAGEB2 (11727129_at) / Fold change /veh MAGEB2 (11727129_at) / RFU TMEM200A (11744735_a_at) / Fold change /veh TMEM200A (11744735_a_at) / RFU CCDC152 (11751479_a_at) / Fold change /veh CCDC152 (11751479_a_at) / RFU FAM211A (11726209_a_at) / Fold change /veh FAM211A (11726209_a_at) / RFU RGS16 (11746705_a_at) / Fold change /veh RGS16 (11746705_a_at) / RFU VCAN (11755009_s_at) / Fold change /veh VCAN (11755009_s_at) / RFU RHOB (11743442_s_at) / Fold change /veh RHOB (11743442_s_at) / RFU RGS16 (11720943_a_at) / Fold change /veh RGS16 (11720943_a_at) / RFU RGS16 (11720944_at) / Fold change /veh RGS16 (11720944_at) / RFU, VPS4B / Fold change vs veh, VPS4B / RFU, CREB1 / Fold change vs veh, CREB1 / RFU, DNAJC13 / Fold change vs veh, DNAJC13 / RFU, GNAQ / Fold change vs veh, GNAQ / RFU, CDK5R1 / Fold change vs veh, CDK5R1 / RFU, ZRANB3 / Fold change vs veh, ZRANB3 / RFU, CUL4A / Fold change vs veh, CUL4A / RFU, CCNY / Fold change vs veh, CCNY / RFU, UFL1 / Fold change vs veh, UFL1 / RFU, COG3 / Fold change vs veh, COG3 / RFU, DIAPH2 / Fold change vs veh, DIAPH2 / RFU, SKA2 / Fold change vs veh, SKA2 / RFU, AFF3 / Fold change vs veh, AFF3 / RFU, LMF1 / Fold change vs veh, LMF1 / RFU, IPO11 / Fold change vs veh, IPO11 / RFU, DFFB / Fold change vs veh, DFFB / RFU, FOXP1 / Fold change vs veh, FOXP1 / RFU, CARD8 / Fold change vs veh, CARD8 / RFU, STRN3 / Fold change vs veh, STRN3 / RFU, ADK / Fold change vs veh, ADK / RFU, RASSF2 / Fold change vs veh, RASSF2 / RFU, WIPF1 / Fold change vs veh, WIPF1 / RFU, LARP1B / Fold change vs veh, LARP1B / RFU, RASA1 / Fold change vs veh, RASA1 / RFU, RB1 / Fold change vs veh, RB1 / RFU, PPFIA1 / Fold change vs veh, PPFIA1 / RFU, MAT2A / Fold change vs veh, MAT2A / RFU, CCT5 / Fold change vs veh, CCT5 / RFU, WDR92 / Fold change vs veh, WDR92 / RFU, CUX1 / Fold change vs veh, CUX1 / RFU, TTC7A / Fold change vs veh, TTC7A / RFU, TMEM135 / Fold change vs veh, TMEM135 / RFU, DEPTOR / Fold change vs veh, DEPTOR / RFU, CPM / Fold change vs veh, CPM / RFU, DNAJB6 / Fold change vs veh, DNAJB6 / RFU, CACNA2D3 / Fold change vs veh, CACNA2D3 / RFU, DTX4 / Fold change vs veh, DTX4 / RFU, TFCP2 / Fold change vs veh, TFCP2 / RFU, GMCL1 /// GMCL1P1 / Fold change vs veh, GMCL1 /// GMCL1P1 / RFU, AEBP2 / Fold change vs veh, AEBP2 / RFU, SNHG1 /// SNORD22 /// SNORD25 /// SNORD26 /// SNORD27 /// SNORD28 /// SNORD29 /// SNORD31 / Fold change vs veh, SNHG1 /// SNORD22 /// SNORD25 /// SNORD26 /// SNORD27 /// SNORD28 /// SNORD29 /// SNORD31 / Fold change (Aza/veh), C12orf56 (ProbeSet 11735607_a_at) / Fold change (ACY-1035/veh), C12orf56 (ProbeSet 11735607_a_at) / Fold change (Aza/veh), FGFR1OP (ProbeSet 11751329_s_at) / Fold change (ACY-1035/veh), FGFR1OP (ProbeSet 11751329_s_at) / Fold change (Aza/veh), VPS36 (ProbeSet 11739960_a_at) / Fold change (ACY-1035/veh), VPS36 (ProbeSet 11739960_a_at) / RFU SYPL1 (11715823_x_at) / Fold change /veh SYPL1 (11715823_x_at) / RFU IGFBP7 (11715501_s_at) / Fold change /veh IGFBP7 (11715501_s_at) / RFU REEP3 (11722064_at) / Fold change /veh REEP3 (11722064_at) / RFU IGLL1 (11728026_x_at) / Fold change /veh IGLL1 (11728026_x_at): dose or concentration left out as unconfirmed
Conditions: ProbeSet 11762504_a_at; LIST D

With `Nc1ncn([C@@H]2O[C@H](CO)[C@@H](O)[C@H]2O)c(=O)n1` [azacitidine] the “RFU, ZRANB3” value was 79.10 RFU.
